Test results from ChEMBL document CHEMBL2046287, “Conformation study of 2-arylbenzimidazoles as inhibitors of Chlamydia pneumoniae growth” (2012).

tested on: Chlamydia pneumoniae; test: Growth inhibition of Chlamydia pneumoniae at 10 uM; type: functional; details: read-out: GI

Structure (SMILES)	inhibition of growth at 10 µM
Cc1ccccc1C(=O)Nc1ccccc1	99%
Cc1ccccc1-c1nc2ccccc2[nH]1	59%
c1ccc(-c2nc3ccccc3[nH]2)cc1	89%
O=C(Nc1ccccc1)c1ccco1	45%
O=C(Nc1ccccc1)c1ccsc1	68%
O=C(Nc1ccccc1)c1ccccc1C(F)(F)F	96%
Cn1c(-c2ccccc2)nc2ccccc21	0%
O=C(Nc1ccccc1)c1cccs1	89%
O=C(Nc1ccccc1)c1ccoc1	78%
Cn1cccc1C(=O)Nc1ccccc1	80%
O=C(Nc1ccccc1)c1ccccc1F	0%
COc1ccccc1C(=O)Nc1ccccc1	0%
O=C(Nc1ccccc1)c1cscn1	39%
O=C(Nc1ccccc1)c1ccccn1	36%
c1ccc(-c2nc3ccccc3o2)cc1 [2-PHENYLBENZO[D]OXAZOLE]	61%
O=C(Nc1ccccc1)c1ccccc1 [N-PHENYLBENZAMIDE]	99%
